Data: patent publication US8778947B2 (Intermune, Inc., priority 2012, dated 2014)
“Also recorded” adds a separate entry of the source. Like-named read-outs stand apart in the source and are kept apart here. One block for each molecule: values may come before it.

Assays:
[1] = cited from earlier work
[2] = Phase 1 open-label crossover study: safety (adverse events); assay type: in vivo, human (healthy subjects)
From the text: The Safety population was defined as subjects who received any amount of pirfenidone or ciprofloxacin.

CYP1A2 = CYP1A2 (Homo sapiens, UniProt P05177); settings: in vitro experiments; cited from earlier work
clinical = settings: human, in vivo, po; for AUC(0-inf): AUC0-∞
Experimental: 750-mg tablets orally, as follows: • Day 2: 750 mg in the evening • Days 3-6: 750 mg twice a day (BID) • Day 7: 750 mg in the morning.
Both noncompartmental methods and a previously derived population PK (i.e., compartmental) model were used to analyze the plasma concentration-time data and characterize individual subject PK parameters.

[3] = Ciprofloxacin-pirfenidone in vitro-in vivo extrapolation (IVIVE) simulations of pirfenidone AUC change; settings: from in vitro and in vivo data coupled with IVIVE simulations
From the text: In brief, the process involves combining in vitro knowledge regarding the properties of a potential inhibitor [IC50 values for various cytochrome P450 (CYP) enzymes] with the in vitro knowledge regarding the pathways of metabolism of a given substrate (fraction metabolized by various CYP enzymes).

[4] = Ratio of Day 6/7 (during ciprofloxacin dosing) to Day 1/2 (pre-ciprofloxacin dosing), N = 27
[5] = plasma, single 801 mg oral pirfenidone with food, Study Day 1/2 (Pre-Ciprofloxacin), N = 27
[6] = plasma, single 801 mg oral pirfenidone with food, Study Day 6/7 (During Ciprofloxacin 750 mg BID), N = 27

Sequence of CYP1A2 (P05177 whole entry): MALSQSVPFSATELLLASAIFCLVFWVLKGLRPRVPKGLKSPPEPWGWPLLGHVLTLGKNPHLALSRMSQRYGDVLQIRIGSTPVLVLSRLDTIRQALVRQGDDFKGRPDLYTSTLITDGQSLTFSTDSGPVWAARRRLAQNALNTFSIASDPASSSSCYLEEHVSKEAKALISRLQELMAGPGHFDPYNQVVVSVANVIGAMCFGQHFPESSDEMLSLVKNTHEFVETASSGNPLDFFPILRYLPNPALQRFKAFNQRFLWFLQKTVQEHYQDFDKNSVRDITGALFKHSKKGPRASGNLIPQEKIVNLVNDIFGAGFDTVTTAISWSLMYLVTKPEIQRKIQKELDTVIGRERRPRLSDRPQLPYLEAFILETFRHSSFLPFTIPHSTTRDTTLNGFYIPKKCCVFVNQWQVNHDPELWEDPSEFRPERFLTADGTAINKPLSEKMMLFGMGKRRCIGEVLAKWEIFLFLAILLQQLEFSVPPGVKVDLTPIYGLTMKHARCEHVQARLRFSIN

- AUC0-∞ Geometric Mean Ratio (90% Confidence Interval) [4]: 0.96 (0.92, 1.00)
- Cmax Geometric Mean Ratio (90% Confidence Interval) [4]: 0.62 (0.57, 0.66)
- AUC0-∞ Day 6/7 geometric mean lower than on Day 1/2 (after 801 mg pirfenidone): 7.7%
- Cmax lower with ciprofloxacin coadministration on Day 6/7 than Day 1/2 (after 801 mg pirfenidone): 40%
- AUC0-∞, Geometric Mean [5]: 32600 ng·h/mL
- AUC0-∞, Mean (SD) [5]: 30.9 (4.74) μg*hr/mL
- AUC0-∞, Median [5]: 30300 ng·h/mL
- Cmax, Geometric Mean [5]: 6500 ng/mL
- Cmax, Mean (SD) [5]: 6.1 (1.44) μg/mL
- Cmax, Median [5]: 5700 ng/mL
- T1/2 (apparent terminal elimination half-life), Geometric Mean [5]: 2.6 h
- T1/2, Mean (SD) [5]: 2.7 (0.73) h
- Tmax, Geometric Mean [5]: 2.2 h
- Tmax, Mean (SD) [5]: 2.3 (0.6) h
- Tmax, Median [5]: 2 h
- AUC0-∞, Geometric Mean [6]: 30100 ng·h/mL
- AUC0-∞, Mean (SD) [6]: 29.6 (4.52) μg*hr/mL
- AUC0-∞, Median [6]: 29100 ng·h/mL
- Cmax, Geometric Mean [6]: 3800 ng/mL
- Cmax, Mean (SD) [6]: 3.8 (0.8) μg/mL
- Cmax, Median [6]: 3800 ng/mL
- T1/2 (apparent terminal elimination half-life), Geometric Mean [6]: 4 h
- T1/2, Mean (SD) [6]: 4.2 (0.93) h
- T1/2, Median [6]: 4 h
- Tmax, Geometric Mean [6]: 2.1 h
- Tmax, Mean (SD) [6]: 2 (0.76) h
- Tmax, Median [6]: 2 h
- T1/2 (apparent terminal elimination half-life), Geometric Mean (plasma, single 801 mg oral pirfenidone with food, Study Day 6/7 (During Ciprofloxacin 750 mg BID), N = 27, listed as 5-carboxy-pirfenidone): 4.0 h
Compound: O=C(O)c1ccc(=O)n(-c2ccccc2)c1 [5-Carboxy-Pirfenidone, 5-carboxy-pirfenidone]

Compound: O=C(O)c1cn(C2CC2)c2cc(N3CCNCC3)c(F)cc2c1=O [Ciprofloxacin, 1-cyclopropyl-6-fluoro-1,4-dihydro-4-oxo-7-(1-piperazinyl)-3-quinolinecarboxylic acid]
- [I]in, u (free-drug concentration of the inhibitor entering the liver) ([1]; Ciprofloxacin 250 mg BID): 52
- [I]in, u (free-drug concentration of the inhibitor entering the liver) ([1]; Ciprofloxacin 500 mg BID): 52
- [I]in, u (free-drug concentration of the inhibitor entering the liver) ([1]; ciprofloxacin 750 mg BID): 78

- T1/2, Min, Max (human, in vivo, po): 2.8, 5.6
- Tmax, Min, Max (human, in vivo, po): 1, 4.1
- AUC0-∞, Min, Max (human, in vivo, po, 801 mg): 30, 88.2
- Cmax, Min, Max (human, in vivo, po, 801 mg): 6.6, 14.4
- T1/2, Min, Max (human, in vivo, po, 801 mg): 1.4, 3.6
- Tmax, Min, Max (human, in vivo, po, 801 mg): 1, 3
- AUC(0-inf) (clinical; 801 mg, Geometric Mean): 50800 ng·h/mL
- AUC(0-inf) (clinical; 801 mg, Mean (SD)): 51900 ng·h/mL
- AUC(0-inf) (clinical; 801 mg, Median): 53200 ng·h/mL
- Cmax (clinical; 801 mg, Geometric Mean): 10700 ng/mL
- Cmax (clinical; 801 mg, Mean (SD)): 10400 ng/mL
- Cmax (clinical; 801 mg, Median): 10400 ng/mL
- half-life (clinical; 801 mg, T1/2 (apparent terminal elimination half-life), Geometric Mean): 2.4 h
- half-life (clinical; 801 mg, T1/2, Mean (SD)): 2.5 h
- Tmax (clinical; 801 mg, Geometric Mean): 2.2 h
- Tmax (clinical; 801 mg, Mean (SD)): 2.2 h
- Tmax (clinical; 801 mg, Median): 2 h
- half-life (clinical; T1/2 (apparent terminal elimination half-life), Geometric Mean): 4.1 h
- half-life (clinical; T1/2, Mean (SD)): 4 h
- half-life (clinical; T1/2, Median): 4 h
- Tmax (clinical; Geometric Mean): 2.3 h
- Tmax (clinical; Mean (SD)): 2.6 h
- Tmax (clinical; Median): 2 h
- share of in vivo metabolism of pirfenidone for which CYP1A2 is responsible [3]: 70-80%
Compound: Cc1ccc(=O)n(-c2ccccc2)c1 [Pirfenidone, 5-methyl-1-phenyl-2-(1H)-pyridone]
- subjects whose strongest AE relationship was probably related to pirfenidone ([2]; as assessed by the investigator): 6 subjects
- subjects with pirfenidone-related AEs only on Day 6 ([2]; coadministration with ciprofloxacin): 5 subjects
- subjects with AEs considered related to pirfenidone on Day 1 ([2]; dosing with pirfenidone only): One
- CYP isoform metabolizing pirfenidone in vitro (CYP1A2): primarily metabolized by CYP1A2; also recorded: predominantly carried out by CYP1A2
